From publication PMC9144936, “New Cu^+2 Complexes with N-Sulfonamide Ligands: Potential Antitumor, Antibacterial, and Antioxidant Agents” (Molecules, 2022)

System: Swiss mice
Conditions: mouse, in vivo, ip, 150 mg/kg/day
Method: This study was carried out for a period of 2 weeks on 10 adult Swiss mice, with 5 males and 5 females.
A subacute toxicity study was carried out for a period of 2 weeks for the C2 complex. In total, 10 adult Swiss mice, 32.26 ± 1.3 g body weight, with 5 males and 5 females, were used. The mice were caged in standard polypropylene cages, in standard laboratory conditions (12 h light/dark cycle, temperature 25 ± 1 °C, and relative humidity 55 ± 5%). Standard lab chow, provided by the “Cantacuzino” National Insitute for Research and Development Bucharest, and water were freely available. All procedures performed on mice complied with the European Directive 2010/63/EU and the national low 43/2014 for Protection of Animals Used for Scientific Purposes. This study was approved by the Bioethical Board of the Faculty of Veterinary Medicine Cluj-Napoca (accord no.290/22.11.2021) and the Veterinary Sanitary Direction and Food Safety (accord no.284/21.12.2021). All mice received i.p. 150 mg complex C2/kg b.w./day, for 2 weeks. […]
The general clinical status and the body weight were recorded daily. […]
The liver and kidneys were also removed. […] To determine the hematological toxicity, erythrogram, leukogram, and thrombogram were assessed using a Diatron Abascus Junior Vet 3.

Question: Which clinical changes does the source give for “[Cu(N-(5-Ethyl--[1,3,4]-Thiadiazole-2-yl) Naphtalenesulfonamidate)2(py)2(H2O)] [C2]” here?
Answer: did not undergo clinical changes

Question: And the “histological analyses of kidney and liver” value?
Answer: normal structure
